Reference: patent US8962634B2, “4-amino-3-arylamino-6-arylpyrazolo[3,4-d) pyrimidine derivatives, methods for their preparation and their use as antiviral agents” (priority 2006, dated 2015)
Converted amounts (≈) assume the structure as drawn. Where two headings read alike, the source gives them in different places.

Assays:
[1] = system: coxsackievirus B3 Nancy (CVB3 Nancy); experiment: Cytopathic effect (cpE)-inhibition test in HeLa cells, CVB3 Nancy; format: cell-based; settings: 24 h after infection; for IC50: Enterovirus B, read-out: 50% inhibition concentration CVB3 Nancy
Description: (§1) Cytopathic effect (cpE)-inhibition test with the international reference strain coxsackievirus B3 Nancy (CVB3 Nancy), human rhinovirus 2 and 8 (HRV2 and […]) in HeLa cells
(§2) The replication of the viruses used in the test leads to the complete destruction of the host cells, a strong cytophatic effect (cpE). […] In the test, untreated and substance-treated compact cell lawns were infected with a virus dose that leads to a complete cpE in the untreated virus controls 24 h (CVB3 Nancy) or 72 h (HRV2 and HRV8) after the infection. At this point in time, the still adherent cells were fixed and dyed with a crystal-violet/formalin solution. The inhibition of the virus-induced cpE was quantified photometrically in a Dynatach plate reader after dye elution. The antiviral effect was calculated by comparing the optical densities of the substance-treated and untreated, virus-infected cells with the mean optical density of the cell controls that was assumed to be 100%. By means of the mean dose effect curves the 50% inhibition concentration was determined. Pleconaril was used as a control substance.

[2] = system: human rhinovirus 2 (HRV2); experiment: Cytopathic effect (cpE)-inhibition test in HeLa cells, HRV2; format: cell-based; settings: for IC50: Rhinovirus A, read-out: 50% inhibition concentration HRV2
Description: as §1, §2

[3] = system: HeLa cells; experiment: Tolerance in the cell culture: cytotoxicity in HeLa cells (CC50); format: cell-based; settings: 72 h incubation
Description: (§3) 1×10^4 HeLa cells (DSMZ, ACC 57) were seeded per microtestplate cavity in 0.2 ml culture medium RPMI 1640. The microtiter plates were incubated without the test substance according to standard (at 37° C., 5% CO2 and ca. 95% relative humidity) for 48 hours under physiological conditions to produce subconfluent monolayers. Afterwards, dilution stages of the test substances were added to the monolayers and incubated under physiological conditions during a period of 72 h. At the end of the time of incubation, the extinction of all cavities of the microtiterplates were measured at 660 nm by means of a microplate reader (Sunrise, TECAN) after glutaraldehyd fixation and methylen-blue dye and the CC50 was determined by the analysis program “Magellan”. As the pre-incubation of the HeLa cells already leads to the formation of a subconfluent cell lawn, the cytolysis during the subsequent incubation with the test substance is decisive for the analysis. GMK cells were seemed in microtiter plates and preincubated at 5% CO2, 37° C. and with a humidity of 95% in the incubator during 48 h for producing a cell lawn (Schmidtke M et al.: J Virol Meth, 2001, 95(1-2), 133-143). Then, the medium was removed and the substances were deposited in different concentrations (100 μl/well/concentration, dilution factor 2) in the culture medium. 100 μl of the medium was used for each of the control value determinations (six untreated cell controls). 72 h after the substance application and incubation, the cells were dyed with crystal-violet/methanol. After the extraction of the dye, the optical density (OD) of the individual cavities were measured in a plate photometer of the Dynatech company (550/630 nm) and compared with the mean value of the cell controls. The mean value of the controls was assumed to be 100 %. By means of the mean dose effect curves the 50% cytotoxic concentrations (CC50) were measured by applying the linear interpolation method.

[4] = system: human rhinovirus 8 (HRV8); experiment: Cytopathic effect (cpE)-inhibition test in HeLa cells, HRV8; format: cell-based; settings: for IC50: Rhinovirus A, read-out: 50% inhibition concentration HRV8
Description: as §1, §2

[5] = system: GMK cells; experiment: Tolerance in the cell culture: cytotoxicity in GMK cells (CC50); format: cell-based; settings: 72 h incubation
Description: as §3

[6] = system: coxsackievirus B5 (CVB5); experiment: Plaque reduction test (PRT) in HeLa cells, CVB5; format: cell-based
Description: (§4) Plaque reduction test (PRT) with the substance of example 1 and coxsackievirus B1, B2, B4, B5, B6 (CVB1, CVB2, CVB4, CVB5, CVB6)
(§5) For performing the test, 2-3-days-old compact HeLa cell lawns were infected in 12-well-tissue culture plates with 50-80 plaque-forming units (PFU) (Schmidtke M et al.: J Virol Meth, 2001, 95(1-2), 133-143). Two non-infected cavities of the plate were used as cell controls (CC). After a virus adsorption at 37° C. during one hour the virus-containing supernatant was soaked off. The infected cells were covered with a test medium containing 0.4% agar without (virus controls) or with substance in non-zytotoxic concentrations (dilution factor 2, double determination per concentration) and incubated at 37° C. during 48 h. After the fixation and dyeing of the plates with crystal-violet formalin, the agar was removed and rinsed in flowing water. The number of the virus-induced plaques was counted via a light box and afterwards the proportional substance-induced plaque reduction was calculated. Three identical test approaches were performed and the concentration that leads to a 50% plaque reduction (IC50) was measured by using the calculated mean dose-effect-curve.

[7] = Tolerance in the cell culture: cytotoxicity in HeLa cells (CC50); format: cell-based; settings: human, repeated per virus line of the plaque reduction table, read-out: 50% zytotoxic concentration in HeLa cells (CC50)
Description: as §3

[8] = system: coxsackievirus B6 (CVB6); experiment: Plaque reduction test (PRT) in HeLa cells, CVB6; format: cell-based
Description: as §4, §5

[9] = system: coxsackievirus B1 (CVB1); experiment: Plaque reduction test (PRT) in HeLa cells, CVB1; format: cell-based
Description: as §4, §5

[10] = system: coxsackievirus B4 (CVB4); experiment: Plaque reduction test (PRT) in HeLa cells, CVB4; format: cell-based
Description: as §4, §5

[11] = system: coxsackievirus B2 (CVB2); experiment: Plaque reduction test (PRT) in HeLa cells, CVB2; format: cell-based
Description: as §4, §5

[12] = system: mice; experiment: Acute toxicity in the mouse, single oral administration; format: in vivo; settings: for Number of dead/surviving mice: 5 mice; for substance concentration up to which all animals survived: administered orally once, mice; for tolerability after administering orally once: mouse, in vivo, po; for influence on general state of health, rectal temperature, body weight: up to 3.000 mg/kg orally once, three days observation
Description: The acute toxicity of the substances of the examples 2 and 4 were determined in mice which were 4-5 weeks old (without strain designation). 1-2 drops TWIN-80 were added to a 1% aqueous carboxymethyl cellulose solution and this mixture was used to produce a substance suspension. 1500, 2000, 2500, 3000, 4000 or 5000 mg/kg of the substances of the examples 2 and 4 were administered orally to 5 mice, each amount once. On the following three days, the general state of health of the mice, the changes in their weight, their rectal temperatures and their survival rate were determined.

[13] = HRV2, cpE inhibition, HeLa cells, 72 h after infection
[14] = HRV8, cpE inhibition, HeLa cells, 72 h after infection
[15] = cpE inhibition, HeLa cells, 72 h after infection

Cc1cccc(Nc2n[nH]c3nc(-c4ccccc4)nc(N)c23)c1 [Example 3, 4-amino-3-(3-methylphenyl)amino-6-phenylpyrazolo[3,4-d]pyrimidine]
melting point: 246 to 248 °C | IC50 [1]: 0.02 mg/L (≈ 0.0632 µM) | IC50 [2, 13]: 1.1 mg/L (≈ 3.48 µM) | 50% cytotoxic concentration in HeLa cells [3]: 27.7 µg/mL | IC50 [4, 14]: 1 mg/L (≈ 3.16 µM)

Cc1cc(CCCOc2c(C)cc(-c3noc(C(F)(F)F)n3)cc2C)on1 [Pleconaril, reference compound]
50% inhibition concentration CVB3 Nancy [1]: ineffective | IC50 ([2]; HRV2, HeLa, 72 h): 0.01 mg/L (≈ 0.0262 µM) | IC50 ([4]; HRV8, HeLa, 72 h): 1.3 mg/L (≈ 3.41 µM)

Nc1nc(-c2ccccc2)nc2[nH]nc(Nc3ccc(Br)cc3)c12 [Example 5, 4-amino-3-(4-bromophenyl)amino-6-phenylpyrazolo[3,4-d]pyrimidine]
melting point: 272 to 274 °C | IC50 [1]: 0.04 mg/L (≈ 0.105 µM) | IC50 [2, 13]: 0.7 mg/L (≈ 1.84 µM) | 50% cytotoxic concentration in HeLa cells [3]: 8.5 µg/mL | IC50 [4, 14]: 1 mg/L (≈ 2.62 µM) | 50% cytotoxic concentration in GMK cells [5]: 42.9 µg/mL

Nc1nc(-c2ccccc2)nc2[nH]nc(Nc3ccccc3)c12 [Example 1, 4-amino-3-phenylamino-6-phenylpyrazolo[3,4-d]pyrimidine]
Selection index (SI) = CC50:IC50 ([6]; CVB5): 14.1 | IC50 ([6]; Enterovirus B, HeLa, plaque reduction, CVB5, 48 h, read-out: 50% inhibition concentration in HeLa cells (IC50)): 2.8 mg/L (≈ 9.26 µM) | IC50 [1]: 0.002 mg/L (≈ 0.00662 µM) | 50% inhibition concentration HRV2 [2, 15]: ineffective | 50% cytotoxic concentration in HeLa cells [3]: 39.6 µg/mL | CC50 at 72 h [7]: 39.6 mg/L (≈ 131 µM) | 50% inhibition concentration HRV8 [4, 15]: ineffective | Selection index (SI) = CC50:IC50 ([8]; CVB6): 15.3 | IC50 ([8]; Enterovirus B, HeLa, plaque reduction, CVB6, 48 h, read-out: 50% inhibition concentration in HeLa cells (IC50)): 2.6 mg/L (≈ 8.6 µM) | Selection index (SI) = CC50:IC50 ([9]; CVB1): 3.1 | IC50 ([9]; Enterovirus B, HeLa, plaque reduction, CVB1, 48 h, read-out: 50% inhibition concentration in HeLa cells (IC50)): 12.7 mg/L (≈ 42 µM) | Selection index (SI) = CC50:IC50 ([10]; CVB4): 5.6 | IC50 ([10]; Enterovirus B, HeLa, plaque reduction, CVB4, 48 h, read-out: 50% inhibition concentration in HeLa cells (IC50)): 7.1 mg/L (≈ 23.5 µM) | 50% cytotoxic concentration in GMK cells [5]: >50 µg/mL | Selection index (SI) = CC50:IC50 ([11]; CVB2): 132 | IC50 ([11]; Enterovirus B, HeLa, plaque reduction, CVB2, 48 h, read-out: 50% inhibition concentration in HeLa cells (IC50)): 0.3 mg/L (≈ 0.992 µM)

Nc1nc(-c2ccccc2)nc2[nH]nc(Nc3cccc(F)c3)c12 [Example 2, 4-amino-3-(3-fluorophenyl)amino-6-phenylpyrazolo[3,4-d]pyrimidine]
IC50 [1]: 0.001 mg/L (≈ 0.00312 µM) | IC50 [2, 13]: 4.1 mg/L (≈ 12.8 µM) | 50% cytotoxic concentration in HeLa cells [3]: 45.7 µg/mL | Number of dead/surviving mice ([12]; 1500 mg/kg orally once): 0/5 | Number of dead/surviving mice ([12]; 2000 mg/kg orally once): 0/5 | Number of dead/surviving mice ([12]; 2500 mg/kg orally once): 0/5 | Number of dead/surviving mice ([12]; 3000 mg/kg orally once): 0/5 | Number of dead/surviving mice ([12]; 4000 mg/kg orally once): 3/5 | Number of dead/surviving mice ([12]; 5000 mg/kg orally once): 5/5 | substance concentration up to which all animals survived [12]: 3.000 mg/kg | tolerability after administering orally once [12]: very tolerable | influence on general state of health, rectal temperature, body weight [12]: Neither the general state of health nor the rectal temperature nor the body weight was influenced | IC50 [4, 14]: 4.6 mg/L (≈ 14.4 µM) | 50% cytotoxic concentration in GMK cells [5]: >50 µg/mL

Cc1ccc(Nc2n[nH]c3nc(-c4ccccc4)nc(N)c23)cc1 [Example 4, 4-amino-3-(4-methylphenyl)amino-6-phenylpyrazolo[3,4-d]pyrimidine]
IC50 [1]: 0.08 mg/L (≈ 0.253 µM) | IC50 [2, 13]: 1.8 mg/L (≈ 5.69 µM) | 50% cytotoxic concentration in HeLa cells [3]: >50 µg/mL | Number of dead/surviving mice ([12]; 1500 mg/kg orally once): 0/5 | Number of dead/surviving mice ([12]; 2000 mg/kg orally once): 0/5 | Number of dead/surviving mice ([12]; 2500 mg/kg orally once): 0/5 | Number of dead/surviving mice ([12]; 3000 mg/kg orally once): 0/5 | Number of dead/surviving mice ([12]; 4000 mg/kg orally once): 4/5 | Number of dead/surviving mice ([12]; 5000 mg/kg orally once): 5/5 | substance concentration up to which all animals survived [12]: 3.000 mg/kg | tolerability after administering orally once [12]: very tolerable | influence on general state of health, rectal temperature, body weight [12]: Neither the general state of health nor the rectal temperature nor the body weight was influenced | IC50 [4, 14]: 2.2 mg/L (≈ 6.95 µM) | 50% cytotoxic concentration in GMK cells [5]: >50 µg/mL

Nc1nc(-c2ccccc2)nc2[nH]nc(Nc3ccc(F)cc3)c12 [Example 6, 4-amino-3-(4-fluorophenyl)amino-6-phenylpyrazolo[3,4-d]pyrimidine]
melting point: 259 to 263 °C | IC50 [1]: 0.03 mg/L (≈ 0.0937 µM) | IC50 [2, 13]: 0.9 mg/L (≈ 2.81 µM) | 50% cytotoxic concentration in HeLa cells [3]: 44.3 µg/mL | IC50 [4, 14]: 2 mg/L (≈ 6.24 µM) | 50% cytotoxic concentration in GMK cells [5]: >50 µg/mL
